Reference: patent US9067944B2, “Process for the preparation of anagrelide and analogues thereof” (SHIRE LLC, priority 2010, dated 2015)
Where two headings read alike, the source gives them in different places.

Tests used:
[1] = solubility of the tosylate salt; assay type: physicochemical; conditions: crystalline tosylate salt
[2] = radiolabeled base, monkeys; cited from earlier work
[3] = radiolabeled base, humans; cited from earlier work
[4] = solid form; cited from earlier work

Structure (SMILES) | solubility [1] | absorption into blood plasma [2] | absorption into blood plasma [3] | aqueous solubility [4]
CC1(C)C(=O)NC2=Nc3ccc(Cl)c(Cl)c3CN21.Cc1ccc(S(=O)(=O)O)cc1 [3,3-dimethylanagrelide tosylate, 3,3-Dimethylanagrelide Tosylate] | soluble |  |  | 
O=C1CN2Cc3c(ccc(Cl)c3Cl)N=C2N1 [compound III, 6,7-dichloro-1,5-dihydroimidazo[2,1-b]quinazolin 2 (3H)-one] |  | complete absorption | complete absorption | low
